Experimental data as given in PubChem BioAssay AID192 (DTP/NCI, 2004).
Values joined by “and” are separate entries in the source; they are usually repeats but may differ in a detail not shown here. Equal values may be shown once. Toxic doses and inconclusive results are not listed. Peptide text beside a SMILES is read from it.

System: BDF1 mice, B16 melanoma ip, median survival T/C
Assay: NCI In Vivo Anticancer Drug Screen. Data for tumor model B16 Melanoma (intraperitoneal) in B6D2F1 (BDF1) mice
Conditions: endpoint: median survival time, higher = longer survival
In short: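 Antitumor activity is assessed in mice bearing a transplanted tumor, with survival or tumor size compared against vehicle-dosed controls and expressed as T/C.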

[1] = dose: 12.5 mg/kg/injection, schedule: Q01DX009 (ip), vehicle: saline with Tween-80
[2] = dose: 25.0 mg/kg/injection, schedule: Q01DX009 (ip), vehicle: saline with Tween-80
[3] = dose: 50.0 mg/kg/injection, schedule: Q01DX009 (ip), vehicle: saline with Tween-80
[4] = dose: 100.0 mg/kg/injection, schedule: Q01DX009 (ip), vehicle: saline with Tween-80
[5] = dose: 6.25 mg/kg/injection, schedule: Q01DX009 (ip), vehicle: Klucel (hydroxypropylcellulose) (HPC)
[6] = dose: 12.5 mg/kg/injection, schedule: Q01DX009 (ip), vehicle: Klucel (hydroxypropylcellulose) (HPC)
[7] = dose: 25.0 mg/kg/injection, schedule: Q01DX009 (ip), vehicle: Klucel (hydroxypropylcellulose) (HPC)
[8] = dose: 50.0 mg/kg/injection, schedule: Q01DX009 (ip), vehicle: Klucel (hydroxypropylcellulose) (HPC)
[9] = dose: 100.0 mg/kg/injection, schedule: Q01DX009 (ip), vehicle: Klucel (hydroxypropylcellulose) (HPC)
[10] = dose: 200.0 mg/kg/injection, schedule: Q01DX009 (ip), vehicle: Klucel (hydroxypropylcellulose) (HPC)
[11] = dose: 100.0 mg/kg/injection, schedule: Q01DX009 (ip), vehicle: saline
[12] = dose: 200.0 mg/kg/injection, schedule: Q01DX009 (ip), vehicle: saline
[13] = dose: 400.0 mg/kg/injection, schedule: Q01DX009 (ip), vehicle: saline
[14] = dose: 25.0 mg/kg/injection, schedule: Q01DX009 (ip), vehicle: saline
[15] = dose: 50.0 mg/kg/injection, schedule: Q01DX009 (ip), vehicle: saline

O=C(Nc1ccccc1)Oc1ccc(OCc2ccccc2)cc1
T/C [1]: 96 % of control
T/C [2]: 93 % of control
T/C [3]: 92 % of control

NCc1c(Cl)c(Cl)c(CN)c(Cl)c1Cl
T/C [2]: 100 % of control
T/C [3]: 102 % of control
T/C [4]: 100 % of control

N=c1c2ncn(Cc3cccc(C(F)(F)F)c3)c2ncn1O
T/C (dose: 0.09 mg/kg/injection, schedule: Q01DX009 (ip), vehicle: Klucel (hydroxypropylcellulose) (HPC)): 93 % of control
T/C (dose: 0.19 mg/kg/injection, schedule: Q01DX009 (ip), vehicle: Klucel (hydroxypropylcellulose) (HPC)): 90 % of control
T/C (dose: 0.25 mg/kg/injection, schedule: Q04DX003 (ip), vehicle: Klucel (hydroxypropylcellulose) (HPC)): 97 % of control
T/C (dose: 0.39 mg/kg/injection, schedule: Q01DX009 (ip), vehicle: Klucel (hydroxypropylcellulose) (HPC)): 93 % of control
T/C (dose: 0.5 mg/kg/injection, schedule: Q04DX003 (ip), vehicle: Klucel (hydroxypropylcellulose) (HPC)): 95 % of control
T/C (dose: 0.78 mg/kg/injection, schedule: Q01DX009 (ip), vehicle: Klucel (hydroxypropylcellulose) (HPC)): 91 % of control
T/C (dose: 1.0 mg/kg/injection, schedule: Q04DX003 (ip), vehicle: Klucel (hydroxypropylcellulose) (HPC)): 92 % of control
T/C (dose: 1.4 mg/kg/injection, schedule: Q04DX003 (ip), vehicle: Klucel (hydroxypropylcellulose) (HPC)): 107 % of control
T/C (dose: 1.56 mg/kg/injection, schedule: Q01DX009 (ip), vehicle: Klucel (hydroxypropylcellulose) (HPC)): 88 % of control
T/C (dose: 2.2 mg/kg/injection, schedule: Q04DX003 (ip), vehicle: Klucel (hydroxypropylcellulose) (HPC)): 107 % of control
T/C (dose: 3.3 mg/kg/injection, schedule: Q04DX003 (ip), vehicle: Klucel (hydroxypropylcellulose) (HPC)): 95 % of control

CC(C)=CCC/C(C)=C/CNCCc1c[nH]c2ccccc12
T/C [5]: 107 % of control
T/C [6]: 111 % of control

[I][Hg][CH2]C1OCCOC1[CH2][Hg][I] (centres undefined)
T/C [5]: 100 % of control
T/C [6]: 101 % of control
T/C [7]: 106 % of control
T/C [8]: 107 % of control
T/C [9]: 105 % of control
T/C [10]: 95 % of control

O=C(O)CC(=O)O.[NH-]CC[NH-].[Pt+2]
T/C (dose: 3.12 mg/kg/injection, schedule: Q01DX009 (ip), vehicle: dextrose): 119 % of control
T/C (dose: 12.5 mg/kg/injection, schedule: Q01DX009 (ip), vehicle: dextrose): 171 % of control
T/C [7]: 197 % of control and 214 % of control

Cc1ccc(S(=O)(=O)N(CCCCN(S(=O)(=O)c2ccc(C)cc2)S(=O)(=O)c2ccc(C)cc2)S(=O)(=O)c2ccc(C)cc2)cc1
T/C (dose: 100.0 mg/kg/injection, schedule: Q04DX003 (ip), vehicle: Klucel (hydroxypropylcellulose) (HPC)): 95 % of control
T/C (dose: 400.0 mg/kg/injection, schedule: Q04DX003 (ip), vehicle: Klucel (hydroxypropylcellulose) (HPC)): 112 % of control

CCCCNC1=C(N2CC2)C(=O)C(NCCCC)=C(N2CC2)C1=O
T/C (dose: 1.25 mg/kg/injection, schedule: Q01DX009 (ip), vehicle: saline): 113 % of control
T/C (dose: 2.5 mg/kg/injection, schedule: Q01DX009 (ip), vehicle: saline): 112 % of control

COc1cc2ccncc2cc1O
T/C (dose: 6.25 mg/kg/injection, schedule: Q01DX009 (ip), vehicle: water): 104 % of control
T/C (dose: 12.5 mg/kg/injection, schedule: Q01DX009 (ip), vehicle: water): 95 % of control
T/C (dose: 25.0 mg/kg/injection, schedule: Q01DX009 (ip), vehicle: water): 109 % of control
T/C (dose: 50.0 mg/kg/injection, schedule: Q01DX009 (ip), vehicle: water): 98 % of control

COc1ccc2c(c1)C(=O)CC=C(C(=O)O)N2
T/C [11]: 100 % of control
T/C (dose: 100.0 mg/kg/injection, schedule: Q04DX003 (ip), vehicle: saline with Tween-80): 88 % of control
T/C [12]: 96 % of control
T/C (dose: 200.0 mg/kg/injection, schedule: Q04DX003 (ip), vehicle: saline with Tween-80): 93 % of control
T/C [13]: 98 % of control
T/C (dose: 400.0 mg/kg/injection, schedule: Q04DX003 (ip), vehicle: saline with Tween-80): 95 % of control

O=S(=O)(O)c1ccc2cccc(N=Nc3c(O)ccc4ccccc34)c2c1
T/C [1]: 105 % of control
T/C [2]: 102 % of control
T/C [3]: 91 % of control

CC1=CC(=O)C=CC1=Nc1ccc(N(C)C)cc1
T/C [2]: 91 % of control
T/C [3]: 90 % of control

CCCCNC(=O)Nc1ccccc1Cl
T/C [4]: 100 % of control
T/C (dose: 200.0 mg/kg/injection, schedule: Q01DX009 (ip), vehicle: saline with Tween-80): 98 % of control
T/C (dose: 400.0 mg/kg/injection, schedule: Q01DX009 (ip), vehicle: saline with Tween-80): 98 % of control

C[n+]1cc2c3ccccc3c(N)cc2c2ccccc21
T/C (dose: 3.13 mg/kg/injection, schedule: Q01DX009 (ip), vehicle: saline): 106 % of control

Nc1ccc2nc3ccc(N)cc3[n+](-c3ccccc3)c2c1
T/C (dose: 3.75 mg/kg/injection, schedule: Q01DX009 (ip), vehicle: saline with Tween-80): 97 % of control
T/C (dose: 7.5 mg/kg/injection, schedule: Q01DX009 (ip), vehicle: saline with Tween-80): 102 % of control
T/C (dose: 10.0 mg/kg/injection, schedule: Q04DX003 (ip), vehicle: saline with Tween-80): 100 % of control
T/C (dose: 15.0 mg/kg/injection, schedule: Q01DX009 (ip), vehicle: saline with Tween-80): 102 % of control
T/C (dose: 20.0 mg/kg/injection, schedule: Q04DX003 (ip), vehicle: saline with Tween-80): 107 % of control
T/C (dose: 30.0 mg/kg/injection, schedule: Q01DX009 (ip), vehicle: saline with Tween-80): 118 % of control
T/C (dose: 40.0 mg/kg/injection, schedule: Q04DX003 (ip), vehicle: saline with Tween-80): 100 % of control

NC1CONC1=O (centres undefined)
T/C (dose: 6.25 mg/kg/injection, schedule: Q01DX009 (ip), vehicle: saline): 109 % of control
T/C (dose: 12.5 mg/kg/injection, schedule: Q01DX009 (ip), vehicle: saline): 88 % of control
T/C [14]: 109 % of control
T/C [15]: 102 % of control
T/C [11]: 105 % of control
T/C [12]: 100 % of control
T/C [13]: 91 % of control

N#Cc1ccc(/C=C/C(=O)c2ccccc2)cc1
T/C [9]: 101 % of control
T/C [10]: 101 % of control

O=C(CCN1CC1)OC1CCCC1
T/C (dose: 0.75 mg/kg/injection, schedule: Q01DX009 (ip), vehicle: Klucel (hydroxypropylcellulose) (HPC)): 111 % of control
T/C (dose: 1.5 mg/kg/injection, schedule: Q01DX009 (ip), vehicle: Klucel (hydroxypropylcellulose) (HPC)): 105 % of control
T/C (dose: 3.0 mg/kg/injection, schedule: Q01DX009 (ip), vehicle: Klucel (hydroxypropylcellulose) (HPC)): 108 % of control

CC[N+]1(C2CCC3CCC2C3O)CCOCC1 (centres undefined)
T/C [14]: 105 % of control
T/C [15]: 105 % of control
T/C [11]: 105 % of control

CC[C@@H]1O[C@H]2O[C@@H](/C=C/C=C/C=C/c3oc(=O)cc(OC)c3C)[C@@H](O)[C@@]2(C)[C@]1(C)O
T/C (dose: 0.5 mg/kg/injection, schedule: Q01DX009 (ip), vehicle: Klucel (hydroxypropylcellulose) (HPC)): 94 % of control
T/C (dose: 1.0 mg/kg/injection, schedule: Q01DX009 (ip), vehicle: Klucel (hydroxypropylcellulose) (HPC)): 90 % of control
T/C (dose: 2.0 mg/kg/injection, schedule: Q01DX009 (ip), vehicle: Klucel (hydroxypropylcellulose) (HPC)): 92 % of control

C1CC[N-]CC1.CC(=N\O)/C(C)=N/O.CC(=N\O)/C(C)=N/O.[CH3-].[Co+2]
T/C [7]: 105 % of control
T/C [8]: 91 % of control
T/C [9]: 88 % of control

CCN(CC)c1ccc(C=Nc2cccc(C(F)(F)F)c2)cc1
T/C [8]: 103 % of control
T/C [9]: 96 % of control
T/C [10]: 96 % of control

C[NH-].C[NH-].C[NH-].C[NH-].[Cl][Rh][Cl]
T/C [7]: 114 % of control
T/C [8]: 120 % of control
T/C [9]: 105 % of control

CNC1C(OC2C(OC3C(O)C(O)C(N=C(N)N)C(O)C3N=C(N)N)OC(C)C2(O)C=O)OC(CO)C(O)C1O (centres undefined)
T/C (dose: 100.0 mg/kg/injection, schedule: Q01DX009 (ip), vehicle: water): 110 % of control
T/C (dose: 200.0 mg/kg/injection, schedule: Q01DX009 (ip), vehicle: water): 108 % of control

CSCCC(N)C(=O)NC(CC(N)=O)C(=O)O (stereo not drawn) (H-Met-Asn-OH; configuration not given here)
T/C [14]: 103 % of control
T/C [15]: 108 % of control
T/C [11]: 96 % of control
T/C [12]: 89 % of control

O=Cc1c(O)c2ccccc2[nH]c1=O
T/C [2]: 106 % of control and 120 % of control
T/C [3]: 102 % of control and 107 % of control
T/C [4]: 122 % of control

Cc1cccc(/C=N/OCCC(C)C)n1
T/C [3]: 107 % of control
T/C [4]: 95 % of control

CCOc1ccc(N2C(=O)CSC2=S)cc1
T/C [6]: 103 % of control
T/C [7]: 91 % of control
T/C [8]: 95 % of control
